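In this assay, cells in 96-well plates receive the compound at five concentrations for 48 hours. Endpoints are linearly interpolated between the surrounding concentrations. The concentration for 50% growth inhibition is given as GI50. TGI: total growth inhibition.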
How the values were obtained:
Assay in all cases: growth of human tumour cells (NCI), 48 h
[1] = test system: SNB-75 CNS
[2] = test system: RXF 393 renal
[3] = test system: SF-295 CNS
[4] = test system: CCRF-CEM leukemia
[5] = test system: TK-10 renal
[6] = test system: SR leukemia
[7] = test system: OVCAR-3 ovarian
[8] = test system: SK-MEL-28 melanoma
[9] = test system: HCT-15 colon
[10] = test system: MDA-MB-435
[11] = test system: A498 renal
[12] = test system: NCI-H460 lung
[13] = test system: DU-145 prostate
[14] = test system: SN12C renal
[15] = test system: COLO 205 colon
[16] = test system: LOX IMVI melanoma
[17] = test system: OVCAR-8 ovarian
[18] = test system: SK-MEL-2 melanoma
[19] = test system: T-47D breast
[20] = test system: MALME-3M melanoma
[21] = test system: NCI-H226 lung
[22] = test system: HL-60(TB) leukemia
[23] = test system: UACC-257 melanoma
[24] = test system: ACHN renal
[25] = test system: UACC-62 melanoma
[26] = test system: IGROV1 ovarian
[27] = test system: KM12 colon
[28] = test system: RPMI-8226 leukemia
[29] = test system: OVCAR-5 ovarian
[30] = test system: OVCAR-4 ovarian
[31] = test system: U251 CNS
[32] = test system: MOLT-4 leukemia
[33] = test system: SK-MEL-5 melanoma
[34] = test system: NCI-H522 lung
[35] = test system: UO-31 renal
[36] = test system: MDA-MB-231 breast
[37] = test system: SF-539 CNS
[38] = test system: HT29 colon
[39] = test system: A549 NSCLC
[40] = test system: SNB-19 CNS
[41] = test system: MDA-MB-468 breast
[42] = test system: SW-620 colon
[43] = test system: HOP-62 NSCLC
[44] = test system: SK-OV-3 ovarian
[45] = test system: M14 melanoma
[46] = test system: EKVX NSCLC
[47] = test system: 786-0 renal
[48] = test system: NCI/ADR-RES ovarian
[49] = test system: HCC-2998 colon
[50] = test system: HOP-92 NSCLC
[51] = test system: SF-268 CNS
[52] = test system: K-562 leukemia
[53] = test system: CAKI-1 renal
[54] = test system: BT-549 breast
[55] = test system: MCF7 breast
[56] = test system: PC-3 prostate
[57] = test system: HS 578T breast
[58] = test system: NCI-H23 lung
[59] = test system: HCT-116 colon

Work on `O=C(COc1ccc(/C=C2/C(=O)Nc3ccc(Cl)cc32)cc1)Nc1ccc(Br)cc1` yielded a GI50 [1] of 5.09 µM, a TGI [1] of 20.3 µM and a GI50 [2] of 1.59 µM. The TGI [2] was 3.24 µM, the GI50 [3] was 1.74 µM and the TGI [3] was 3.8 µM. For the same compound, the GI50 [4] was 2.11 µM, the TGI [4] was 5.54 µM and the GI50 [5] was 2.74 µM. For the same compound, the TGI [5] was 5.51 µM, the GI50 [6] was 2.93 µM and the TGI [6] was 12.1 µM. The GI50 [7] was 1.7 µM, the TGI [7] was 3.18 µM and the GI50 [8] was 1.98 µM. The TGI [8] was 5.02 µM, the GI50 [9] was 1.4 µM and the TGI [9] was 10.1 µM. For the same compound, the GI50 [10] was 3.45 µM, the TGI [10] was 13.5 µM and the GI50 [11] was 7.37 µM. For the same compound, the TGI [11] was 19.6 µM, the GI50 [12] was 1.91 µM and the TGI [12] was 3.79 µM. For the same compound, the GI50 [13] was 2.38 µM, the TGI [13] was 6.52 µM and the GI50 [14] was 1.75 µM. The TGI [14] was 4.39 µM, the GI50 [15] was 4.61 µM and the TGI [15] was 17.1 µM. The GI50 [16] was 1.36 µM, the TGI [16] was 2.64 µM and the GI50 [17] was 1.87 µM. For the same compound, the TGI [17] was 3.93 µM, the GI50 [18] was 2.58 µM and the TGI [18] was 10.8 µM. It also gave a GI50 [19] of 1.93 µM, a TGI [19] of 7.56 µM and a GI50 [20] of 1.5 µM. It also gave a TGI [20] of 3.68 µM, a GI50 [21] of 1.55 µM and a TGI [21] of 3.81 µM. It also gave a GI50 [22] of 3.51 µM, a TGI [22] of 14.9 µM and a GI50 [23] of 4.3 µM. It also gave a TGI [23] of 16.5 µM, a GI50 [24] of 1.2 µM and a TGI [24] of 2.47 µM. For the same compound, the GI50 [25] was 1.35 µM, the TGI [25] was 5.72 µM and the GI50 [26] was 2.24 µM. The TGI [26] was 8.14 µM, the GI50 [27] was 2.47 µM and the TGI [27] was 11.6 µM. It also gave a GI50 [28] of 4.04 µM, a TGI [28] of 14.8 µM and a GI50 [29] of 2.29 µM. The TGI [29] was 7.61 µM, the GI50 [30] was 1.85 µM and the TGI [30] was 3.93 µM. It also gave a GI50 [31] of 1.75 µM, a TGI [31] of 3.29 µM and a GI50 [32] of 2.61 µM. It also gave a TGI [32] of 8.48 µM, a GI50 [33] of 2.14 µM and a TGI [33] of 5.47 µM. For the same compound, the GI50 [34] was 1.71 µM, the TGI [34] was 4.64 µM and the GI50 [35] was 0.221 µM. For the same compound, the TGI [35] was 2.27 µM, the GI50 [36] was 1.36 µM and the TGI [36] was 2.88 µM. It also gave a GI50 [37] of 1.59 µM, a TGI [37] of 3.04 µM and a GI50 [38] of 2.87 µM. It also gave a TGI [38] of 9.07 µM, a GI50 [39] of 1.52 µM and a TGI [39] of 3.28 µM. For the same compound, the GI50 [40] was 2.72 µM, the TGI [40] was 8.08 µM and the GI50 [41] was 10.3 µM. It also gave a TGI [41] of 22 µM, a GI50 [42] of 1.89 µM and a TGI [42] of 3.82 µM. For the same compound, the GI50 [43] was 1.62 µM, the TGI [43] was 3.79 µM and the GI50 [44] was 1.49 µM. For the same compound, the TGI [44] was 4.12 µM, the GI50 [45] was 1.67 µM and the TGI [45] was 5.81 µM. It also gave a GI50 [46] of 1.92 µM, a TGI [46] of 5.99 µM and a GI50 [47] of 1.78 µM. It also gave a TGI [47] of 3.21 µM, a GI50 [48] of 1.77 µM and a TGI [48] of 4.04 µM. It also gave a GI50 [49] of 4.46 µM, a TGI [49] of 17.6 µM and a GI50 [50] of 1.61 µM. The TGI [50] was 3.83 µM, the GI50 [51] was 2.42 µM and the TGI [51] was 10.8 µM. For the same compound, the GI50 [52] was 2.11 µM, the TGI [52] was 12.7 µM and the GI50 [53] was 1.47 µM. The TGI [53] was 3.58 µM, the GI50 [54] was 1.43 µM and the TGI [54] was 4.75 µM. The GI50 [55] was 2.03 µM, the TGI [55] was 7.86 µM and the GI50 [56] was 1.79 µM. It also gave a TGI [56] of 6.25 µM, a GI50 [57] of 2.02 µM and a TGI [57] of 6.68 µM. The GI50 [58] was 1.66 µM, the TGI [58] was 3.46 µM and the GI50 [59] was 1.55 µM. It also gave a TGI [59] of 3.09 µM.

From PubChem BioAssay (NCI)
